Among the data in patent publication US20240109905A1, “4-ALKOXY-6-OXO-PYRIDAZINE DERIVATIVES MODULATING NLRP3” (JANSSEN PHARMACEUTICA NV, priority 2021, published 2024) are AC50 values, retold here.

The subject of assay [1] is IL-1β. The assay is described as follows: PBMC assay: IL-1β release after LPS stimulation. It counts as cell-based. As to conditions: PBMC; human PBMCs, 30 min compound, 100 ng/ml LPS for 6 hrs, MSD; read-out: IL1β AC50. On the procedure:
The activity of a compound according to the present invention can be assessed by in vitro methods.
(§1) Peripheral venous blood was collected from healthy individuals and human peripheral blood mononuclear cells (PBMCs) were isolated from blood by Ficoll-Histopaque (Sigma-Aldrich, A0561) density gradient centrifugation. After isolation, PBMCs were stored in liquid nitrogen for later use. Upon thawing, PBMC cell viability was determined in growth medium (RPMI media supplemented with 10% fetal bovine serum, 1% Pen-Strep and 1% L-glutamine). Compounds were spotted in a 1:3 serial dilution in DMSO and diluted to the final concentration in 30 μl medium in 96 well plates (Falcon, 353072). PBMCs were added at a density of 7.5×10^4 cells per well and incubated for 30 min in a 5% CO2 incubator at 37° C. LPS stimulation was performed by addition of 100 ng/ml LPS (final concentration, Invivogen, tlrl-smlps) for 6 hrs followed by collection of cellular supernatant and the analysis of IL-1β (μM) and TNF cytokines levels (μM) via MSD technology according to manufacturers' guidelines (MSD, K151A0H).
(§2) IC50 and AC50 values (for […]) and EC50 and AC50 values (TNF) were obtained on compounds of the invention/examples, and the AC50 values are depicted in the following table: […]

Assay [2] concerns TNF. As to the kind of experiment: PBMC assay: TNF cytokine level after LPS stimulation. As to conditions: PBMC; human PBMCs, 30 min compound, 100 ng/ml LPS for 6 hrs, MSD. It counts as cell-based. On the procedure:
as §1, §2

In general, AC50 refers to the midpoint of the concentration-response curve, whichever way the signal moves.

For `CC(C)c1nn(CC(=O)Nc2ccc3nncn3c2)c(=O)cc1OC1CCN(C(=O)OC(C)(C)C)C1` (centres unmarked) [Compound 1F, tert-butyl 3-((1-(2-([1,2,4]triazolo[4,3-a]pyridin-6-ylamino)-2-oxoethyl)-3-isopropyl-6-oxo-1,6-dihydropyridazin-4-yl)oxy)pyrrolidine-1-carboxylate], the values for the AC50 in assay [1] and in assay [2] were greater than 15 µM and greater than 10 µM, respectively.

In the case of `CC(C)c1nn(CC(=O)Nc2ccc3nncn3c2)c(=O)cc1OCC1CN(C(=O)OC(C)(C)C)C1` [Compound 2F], the AC50 in assay [1] was greater than 15 µM; in assay [2], greater than 10 µM.

With `CC(C)c1nn(CC(=O)Nc2ccc3nncn3c2)c(=O)cc1OC1CN(C(=O)OC(C)(C)C)C1` [Compound 3F], the AC50 is greater than 15 µM in assay [1] and greater than 10 µM in assay [2].

`CC(Oc1cc(=O)n(CC(=O)Nc2ccc3nncn3c2)nc1C(C)C)C(=O)N(C)C` (centres unmarked) [Compound 4F]: the AC50 was greater than 15 µM in assay [1] and greater than 10 µM in assay [2].

Take `CC(C)c1nn(CC(=O)Nc2ccc3nncn3c2)c(=O)cc1OC1CCCC1` [Compound 5F]: the AC50 in assay [1] is 0.47 µM; in assay [2], greater than 10 µM.

In the case of `CC(C)c1nn(CC(=O)Nc2ccc3nncn3c2)c(=O)cc1OCC1CS(=O)(=O)C1` [Compound 6F], the AC50 in assay [1] is greater than 15 µM; in assay [2], greater than 10 µM.

In the case of `CC(C)c1nn(CC(=O)Nc2ccc3nncn3c2)c(=O)cc1OCC1CCC1` [Compound 7F], the values for the half-maximal activity concentration (AC50) in assay [1] and in assay [2] were 0.21 µM and greater than 10 µM, respectively.

For the compound `CC(C)c1nn(CC(=O)Nc2ccc3nncn3c2)c(=O)cc1OCC(C)(F)F` [Compound 8F], the AC50 in assay [1] is 0.19 µM; in assay [2] it was greater than 10 µM.

For `CCC(C)Oc1cc(=O)n(CC(=O)Nc2ccc3nncn3c2)nc1C(C)C` (centres unmarked) [Compound 9F], the figures for the AC50 in assay [1] and in assay [2] were 0.56 µM and greater than 10 µM, respectively.

As for `CC(C)COc1cc(=O)n(CC(=O)Nc2ccc3nncn3c2)nc1C(C)C` [Compound 10F], the figures for the concentration at half-maximal activity (AC50) in assay [1] and in assay [2] were 0.06 µM and greater than 10 µM, respectively.

Turning to `CC(C)c1nn(CC(=O)Nc2ccc3nncn3c2)c(=O)cc1OCC(C)(C)F` [Compound 11F], the AC50 in assay [1] was 0.32 µM; in assay [2] it was greater than 10 µM.

On to `CC(C)c1nn(CC(=O)Nc2ccc3nncn3c2)c(=O)cc1OCCN(C)C` [Compound 12F], for which the concentration at half-maximal activity (AC50) is greater than 15 µM in assay [1] and greater than 10 µM in assay [2].

With `CC(C)c1nn(CC(=O)Nc2ccc3nncn3c2)c(=O)cc1OC1COC1` [Compound 13F], the AC50 in assay [1] is greater than 15 µM; in assay [2], greater than 10 µM.

`CC(C)c1nn(CC(=O)Nc2ccc3nncn3c2)c(=O)cc1OC1CCC1` [Compound 14F]: the values for the AC50 in assay [1] and in assay [2] were 0.68 µM and greater than 10 µM, respectively.

Turning to `CC(C)c1nn(CC(=O)Nc2ccc3nncn3c2)c(=O)cc1OCC1(C)COC1` [Compound 15F], the AC50 was 2.3 µM in assay [1] and greater than 10 µM in assay [2].

For `CC(C)c1nn(CC(=O)Nc2ccc3nncn3c2)c(=O)cc1OCC(C)(C)C(F)(F)F` [Compound 16F], the figures for the concentration at half-maximal activity (AC50) in assay [1] and in assay [2] were 1.56 µM and greater than 10 µM, respectively.

Turning to `CC(C)c1nn(CC(=O)Nc2ccc3nncn3c2)c(=O)cc1OCC(F)F` [Compound 17F], the AC50 is 0.69 µM in assay [1] and greater than 10 µM in assay [2].

On to `CC(C)Oc1cc(=O)n(CC(=O)Nc2ccc3nncn3c2)nc1C(C)C` [Compound 18F], for which the figures for the AC50 in assay [1] and in assay [2] were 0.66 µM and greater than 10 µM, respectively.

On to `CC(C)c1nn(CC(=O)Nc2ccc3nncn3c2)c(=O)cc1OCC1CC(F)(F)C1` [Compound 19F], for which the concentration at half-maximal activity (AC50) in assay [1] was 5.33 µM; in assay [2] it was greater than 10 µM.

Consider `CC(C)c1nn(CC(=O)Nc2ccc3nncn3c2)c(=O)cc1OC(C)C(F)(F)F` (centres unmarked) [Compound 20F], for which the values for the concentration at half-maximal activity (AC50) in assay [1] and in assay [2] were 1.29 µM and greater than 10 µM, respectively.

As to `CC(C)c1nn(CC(=O)Nc2ccc3nncn3c2)c(=O)cc1OCC1CC1(F)F` (centres unmarked) [Compound 21F], the concentration at half-maximal activity (AC50) was 0.65 µM in assay [1] and greater than 10 µM in assay [2].

Consider `CC(C)c1nn(CC(=O)Nc2ccc3nncn3c2)c(=O)cc1OCC1CC1` [Compound 22F], for which the results for the AC50 in assay [1] and in assay [2] were 0.11 µM and greater than 10 µM, respectively.

As for `CC(C)c1nn(CC(=O)Nc2ccc3nncn3c2)c(=O)cc1OCC(F)(F)F` [Compound 23F], the AC50 in assay [1] is 0.16 µM; in assay [2], greater than 10 µM.

For the compound `CCCOc1cc(=O)n(CC(=O)Nc2ccc3nncn3c2)nc1C(C)C` [Compound 24F], the half-maximal activity concentration (AC50) in assay [1] is 0.19 µM; in assay [2], greater than 10 µM.

Take `CC(C)c1nn(CC(=O)Nc2ccc3nncn3c2)c(=O)cc1Oc1ccccc1` [Compound 25F]: the concentration at half-maximal activity (AC50) in assay [1] is greater than 15 µM; in assay [2], greater than 10 µM.

Consider `CC(C)c1nn(CC(=O)Nc2ccc3nncn3c2)c(=O)cc1OC1CCOCC1` [Compound 26F], for which the AC50 in assay [1] was 13.6 µM; in assay [2] it was greater than 10 µM.

As to `COc1cc(=O)n(CC(=O)Nc2ccc3nncn3n2)nc1C(C)C` [Compound 27C, N-([1,2,4]triazolo[4,3-b]pyridazin-6-yl)-2-(3-isopropyl-4-methoxy-6-oxopyridazin-1(6H)-yl)acetamide], the AC50 in assay [1] is 13.3 µM; in assay [2], greater than 10 µM.

For the compound `COc1c(C(C)C)nn(CC(=O)Nc2ccc3nncn3c2)c(=O)c1C1CC1` [Compound 28E], the AC50 in assay [1] is greater than 15 µM; in assay [2] it was greater than 10 µM.

For `COc1c(C(C)C)nn(CC(=O)Nc2ccc3nncn3c2)c(=O)c1Br` [Compound 29E], the half-maximal activity concentration (AC50) in assay [1] is greater than 15 µM; in assay [2], greater than 10 µM.

Turning to `O=C(Cn1nc(C2CC2)c(OC2CCOCC2)cc1=O)Nc1ccc2nncn2c1` [Compound 30G], the half-maximal activity concentration (AC50) in assay [1] was 14.6 µM; in assay [2] it was greater than 10 µM.

In the case of `CCOc1cc(=O)n(CC(=O)Nc2ccc3nncn3n2)nc1C1CC1` [Compound 31C], the AC50 was 0.92 µM in assay [1] and greater than 10 µM in assay [2].

In the case of `O=C(Cn1nc(C2CC2)c(OCC23CC(CO2)C3)cc1=O)Nc1ccc2nncn2n1` [Compound 32E], the AC50 in assay [1] is 14.6 µM; in assay [2], greater than 10 µM.

As to `CCOc1cc(=O)n(CC(=O)Nc2ccc3nncn3c2)nc1C1CC1` [Compound 33D], the AC50 in assay [1] was 1.25 µM; in assay [2] it was greater than 10 µM.

For `COC(=O)C12CC(NC(=O)Cn3nc(C(C)C)c(OCC(C)C)cc3=O)(C1)C2` [Compound 36, methyl 3-(2-(4-isobutoxy-3-isopropyl-6-oxopyridazin-1(6H)-yl)acetamido)bicyclo[1.1.1]pentane-1-carboxylate], the results for the AC50 in assay [1] and in assay [2] were 0.01 µM and 3.81 µM, respectively.

Regarding `COC(=O)C12CCC(NC(=O)Cn3nc(C(C)C)c(OCC(C)C)cc3=O)(CC1)C2` [Compound 38], the figures for the AC50 in assay [1] and in assay [2] were 0.02 µM and 12.2 µM, respectively.

As to `CC(C)COc1c(C(C)C)nn(CC(=O)Nc2ccc3nncn3n2)c(=O)c1Cl` [Compound 39], the AC50 in assay [1] was determined as 0.02 µM; in assay [2], 0.6 µM.

Regarding `CC(C)COc1cc(=O)n(CC(=O)Nc2ccc3nncn3n2)nc1C(C)C` [Compound 41], the AC50 was 0.04 µM in assay [1] and greater than 20 µM in assay [2].

Turning to `Cc1c(OCC(C)C)c(C(C)C)nn(CC(=O)Nc2ccc3nncn3n2)c1=O` [Compound 42], the AC50 in assay [1] was 0.05 µM; in assay [2] it was 9.41 µM.

As for `CC(C)COc1cc(=O)n(CC(=O)Nc2nc3cnccn3n2)nc1C(C)C` [Compound 43], the AC50 is 0.07 µM in assay [1] and greater than 20 µM in assay [2].

Consider `CC(C)c1nn(CC(=O)Nc2ccc3nncn3n2)c(=O)c(Cl)c1OCC1CC1` [Compound 44, N-([1,2,4]triazolo[4,3-b]pyridazin-6-yl)-2-(5-chloro-4-(cyclopropylmethoxy)-3-isopropyl-6-oxopyridazin-1(6H)-yl)acetamide], for which the AC50 in assay [1] turned out to be 0.07 µM; in assay [2] it was 3.53 µM.

As for `COC(=O)C12CCC(NC(=O)Cn3nc(C(C)C)c(OCC(C)C)cc3=O)(CC1)CC2` [Compound 45], the AC50 in assay [1] was 0.07 µM; in assay [2], greater than 20 µM.

With `CC(C)c1nn(CC(=O)Nc2ccc3nncn3n2)c(=O)c(Cl)c1OCC(C)(F)F` [Compound 46], the AC50 in assay [1] was 0.08 µM; in assay [2] it was 8.17 µM.

Turning to `CC(C)COc1cc(=O)n(CC(=O)Nc2ccncc2)nc1C(C)C` [Compound 47], the figures for the AC50 in assay [1] and in assay [2] were 0.08 µM and greater than 20 µM, respectively.

Consider `CCCOc1c(C(C)C)nn(CC(=O)Nc2ccc3nncn3n2)c(=O)c1Cl` [Compound 48], for which the AC50 in assay [1] stood at 0.09 µM; in assay [2] it was 4.98 µM.

For the compound `CC(C)COc1cc(=O)n(CC(=O)Nc2ccc3nccn3n2)nc1C(C)C` [Compound 49], the values for the concentration at half-maximal activity (AC50) in assay [1] and in assay [2] were 0.09 µM and greater than 20 µM, respectively.

As to `CC(C)c1nn(CC(=O)Nc2ccc3nncn3n2)c(=O)c(Cl)c1OCCC(F)(F)F` [Compound 50], the values for the AC50 in assay [1] and in assay [2] were 0.09 µM and 1.62 µM, respectively.

Turning to `CC(C)c1nn(CC(=O)Nc2ccc3nncn3n2)c(=O)cc1OCC1CC1` [Compound 51], the AC50 in assay [1] is 0.09 µM; in assay [2], greater than 20 µM.

`CC(C)COc1cc(=O)n(CC(=O)Nc2ccncc2F)nc1C(C)C` [Compound 52]: the AC50 was 0.09 µM in assay [1] and greater than 20 µM in assay [2].

`CC(C)COc1cc(=O)n(CC(=O)Nc2nc3ccccn3n2)nc1C(C)C` [Compound 53]: the AC50 was 0.1 µM in assay [1] and greater than 20 µM in assay [2].
